How the values were obtained:
[1] = target: mTOR (Homo sapiens (Human), UniProt P42345); experiment: mTOR kinase activity assay (phosphorylation status of mTOR substrate 4E-BP1; TR-FRET); format: biochemical; settings: GFP-4E-BP1 substrate, 8 μM ATP
Procedure: mTOR Kinase Activity Assay
(Phosphorylation Status of mTOR Substrate 4E-BP1; TR-FRET)
The mTOR kinase TR-FRET assay utilizes a physiologically relevant protein substrate for mTOR (4E-BP1, labeled with an acceptor fluorophore (Green Fluorescent Protein) and paired with a corresponding Tb-labeled phospho-specific antibody.
The assay itself is divided into two phases: the reaction phase and the detection phase. In the reaction phase, all components required for the kinase reaction are added to the well, including the labeled protein substrate. The reaction is allowed to incubate for 60 minutes. After the reaction, EDTA is added to stop the kinase reaction, and terbium-labeled antibody is added to bind phosphorylated product. Because the terbium chelate is stable at the EDTA concentrations used to stop a kinase assay, the antibody and EDTA can be pre-mixed prior to addition to minimize pipetting steps. Binding of the terbium labeled antibody to the fluorophore-labeled phosphorylated product brings the terbium and GFP into proximity, resulting in an increase in TR-FRET. In the presence of an inhibitor, formation of phosphorylated product is reduced, and the TR-FRET value is decreased.
• GFP-4E-BP1 substrate; Invitrogen order no. PV4759 • Lanthascreen Tb-anti-p4E-BP1 (pThr46) Antibody Kit; Invitrogen order no. PV4758 • FRAP1 (mTOR) kinase; Invitrogen order no.
400 nM GFP-4E-BP1, 8 μM ATP, ˜150 ng/mL mTOR, 50 mM HEPES pH 7.5, 0.01% Polysorbate 20, 1 mM EGTA, 10 mM MnCl2, and variable amounts of test compounds.
Note: Thaw and keep mTOR, the substrate, ATP, and the antibody on ice prior to making working dilutions. Working dilutions of these components can be kept at room temperature for short periods of time the day of use. • 1. Add 2 ml of 5× Assay Buffer to 8 ml water to prepare 10 ml of 1× Assay Buffer, wherein the concentration of 1× Assay Buffer is 50 mM HEPES pH 7.5, 0.01% Polysorbate 20, 1 mM EGTA, and 10 mM MnCl2. • 2. Prepare Antibody/EDTA Solution by first adding 2.75 μl of Tb-anti p4E-BP1 Antibody to 2397 μl of LanthaScreen™ TR-FRET Dilution Buffer. Then, add 100 μl of 0.5 M EDTA. • 3. […] Then, add 1.6 μl of mTOR (0.45 mg/mL). • 4. Prepare ATP Solution by adding 3.2 μl of 10 mM ATP to 1997 μl of 1× Assay Buffer. Serial Dilution of Inhibitors (16 Point Curve)
Inhibitors are serially diluted in DMSO, then diluted to a 4× working concentration with 1× Assay Buffer. • 1. Dispense 40 μl of DMSO to two adjacent columns of a 96 well plate per compound (e.g. columns 1 and 2). • 2. Add 10 μl of inhibitor stock (10 mM) to the first well of the first column (A1) and mix. • 3. Remove 10 μl from A1 and transfer to the adjacent well in the next column (B1) and mix. • 4. Remove 10 μl from B1 and transfer to the next well in the first column (B2) and mix. • 5. […] Remove 4 μl of diluted compounds and add to 96 μl of 1× Assay Buffer in a 96-well plate making 4× compound dilutions. Kinase Reaction • 1. Add 2.5 μl of 4X compound dilutions to a 384-well plate. • 2. […] Preincubate for […] at RT (shaker). • 5. Add 5 μl of ATP Solution to all wells to start reactions. • 6. Shake the assay plate on a plate shaker for 30 seconds. • 7. Incubate the assay plate for one hour at room temperature (20-25° C.). Stop Step and Fluorescence Detection • 1. Add 10 μl of Antibody/EDTA Solution to each well in columns 1-9. • 2. Shake the assay plate on a plate shaker for 30 seconds. • 3. Incubate the assay plate for one hour at room temperature (20-25° C.). • 4. Measure the GFP (FRET) and terbium (reference) emission signals on a fluorescence plate reader (e.g. Perkin Elmer Envision). Data Analysis • 1. Calculate the emission ratio for each sample by dividing the GFP (FRET) signal by the terbium (reference) signal. • 2.

[2] = target: PI3Kalpha (Homo sapiens (Human), UniProt P42336); experiment: Inhibition of PI3Kalpha-induced PIP-2 phosphorylation (filter-binding assay); format: biochemical; settings: 33P-ATP
Procedure: Inhibition of PI3Kalpha-Induced PIP-2 Phosphorylation
Method Type: Filter-Binding-Assay
Aliquoted in desired amounts and stored at −80° C. Final assay concentration 25 ng/well.

[3] = test system: PC3 (human prostate carcinoma cell line) cells; experiment: PC3 proliferation test; format: cell-based; settings: PC-3, 72 h, 3 days incubation, DNA dye fluorescence

mTOR, sequence (P42345 1360-2549): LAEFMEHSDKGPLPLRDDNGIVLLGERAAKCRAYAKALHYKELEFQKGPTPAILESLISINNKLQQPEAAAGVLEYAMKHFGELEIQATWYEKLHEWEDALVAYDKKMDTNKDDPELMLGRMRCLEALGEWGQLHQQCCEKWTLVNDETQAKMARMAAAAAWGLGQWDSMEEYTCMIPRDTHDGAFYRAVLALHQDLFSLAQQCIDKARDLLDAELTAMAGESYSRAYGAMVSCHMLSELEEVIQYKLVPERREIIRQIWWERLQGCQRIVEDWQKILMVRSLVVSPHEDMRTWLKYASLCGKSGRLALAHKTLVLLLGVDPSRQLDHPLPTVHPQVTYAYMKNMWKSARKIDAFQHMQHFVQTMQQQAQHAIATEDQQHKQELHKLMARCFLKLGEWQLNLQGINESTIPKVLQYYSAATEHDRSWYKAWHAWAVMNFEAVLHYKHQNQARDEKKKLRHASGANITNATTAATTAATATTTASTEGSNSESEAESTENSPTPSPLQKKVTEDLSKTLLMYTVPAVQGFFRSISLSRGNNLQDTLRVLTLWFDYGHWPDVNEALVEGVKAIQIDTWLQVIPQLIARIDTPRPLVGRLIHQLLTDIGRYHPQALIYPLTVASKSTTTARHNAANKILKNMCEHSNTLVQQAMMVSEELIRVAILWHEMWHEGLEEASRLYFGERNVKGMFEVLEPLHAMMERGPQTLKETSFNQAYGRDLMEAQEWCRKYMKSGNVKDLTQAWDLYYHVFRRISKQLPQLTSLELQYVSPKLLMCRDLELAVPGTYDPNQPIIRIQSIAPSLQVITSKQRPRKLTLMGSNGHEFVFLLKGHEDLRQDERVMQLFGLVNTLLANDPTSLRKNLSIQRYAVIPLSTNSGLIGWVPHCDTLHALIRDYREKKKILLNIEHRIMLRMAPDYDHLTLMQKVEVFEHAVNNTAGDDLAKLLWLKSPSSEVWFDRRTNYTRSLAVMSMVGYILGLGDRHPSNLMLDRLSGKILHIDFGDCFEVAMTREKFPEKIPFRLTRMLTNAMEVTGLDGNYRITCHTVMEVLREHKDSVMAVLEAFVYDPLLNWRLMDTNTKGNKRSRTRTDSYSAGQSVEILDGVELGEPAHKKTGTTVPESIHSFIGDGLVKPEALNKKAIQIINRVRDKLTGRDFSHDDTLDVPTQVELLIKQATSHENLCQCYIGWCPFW
PI3Kalpha, sequence (P42336 whole entry, species assumed): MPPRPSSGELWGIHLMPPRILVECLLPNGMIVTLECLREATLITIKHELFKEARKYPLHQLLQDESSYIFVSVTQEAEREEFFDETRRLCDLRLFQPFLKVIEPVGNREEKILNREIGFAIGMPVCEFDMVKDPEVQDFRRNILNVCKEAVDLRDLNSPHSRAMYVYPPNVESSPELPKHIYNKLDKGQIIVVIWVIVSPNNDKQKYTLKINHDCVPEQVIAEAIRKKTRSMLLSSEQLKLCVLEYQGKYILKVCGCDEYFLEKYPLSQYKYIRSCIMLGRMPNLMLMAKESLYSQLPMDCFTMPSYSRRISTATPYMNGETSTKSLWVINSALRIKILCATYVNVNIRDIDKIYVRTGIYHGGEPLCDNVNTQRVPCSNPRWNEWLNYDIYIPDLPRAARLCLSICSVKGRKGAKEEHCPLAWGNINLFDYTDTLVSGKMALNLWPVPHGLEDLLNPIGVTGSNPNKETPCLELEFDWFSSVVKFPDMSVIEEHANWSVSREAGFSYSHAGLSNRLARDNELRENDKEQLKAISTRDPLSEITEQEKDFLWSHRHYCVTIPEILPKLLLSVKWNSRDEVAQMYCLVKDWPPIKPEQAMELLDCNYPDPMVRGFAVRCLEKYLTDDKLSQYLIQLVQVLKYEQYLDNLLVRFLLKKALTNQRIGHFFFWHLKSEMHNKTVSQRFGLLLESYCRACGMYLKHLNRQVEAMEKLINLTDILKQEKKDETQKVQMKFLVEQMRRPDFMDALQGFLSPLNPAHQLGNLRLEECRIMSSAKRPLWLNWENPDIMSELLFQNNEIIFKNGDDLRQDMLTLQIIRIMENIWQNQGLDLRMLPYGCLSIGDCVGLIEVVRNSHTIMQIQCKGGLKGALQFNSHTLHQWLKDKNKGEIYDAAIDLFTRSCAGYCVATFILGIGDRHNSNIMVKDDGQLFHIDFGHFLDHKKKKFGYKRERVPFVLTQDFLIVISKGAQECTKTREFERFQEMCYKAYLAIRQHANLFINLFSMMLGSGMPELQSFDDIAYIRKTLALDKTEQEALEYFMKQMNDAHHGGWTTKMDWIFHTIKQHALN
PI3Kalpha, sequence (P27986 whole entry partner, species assumed): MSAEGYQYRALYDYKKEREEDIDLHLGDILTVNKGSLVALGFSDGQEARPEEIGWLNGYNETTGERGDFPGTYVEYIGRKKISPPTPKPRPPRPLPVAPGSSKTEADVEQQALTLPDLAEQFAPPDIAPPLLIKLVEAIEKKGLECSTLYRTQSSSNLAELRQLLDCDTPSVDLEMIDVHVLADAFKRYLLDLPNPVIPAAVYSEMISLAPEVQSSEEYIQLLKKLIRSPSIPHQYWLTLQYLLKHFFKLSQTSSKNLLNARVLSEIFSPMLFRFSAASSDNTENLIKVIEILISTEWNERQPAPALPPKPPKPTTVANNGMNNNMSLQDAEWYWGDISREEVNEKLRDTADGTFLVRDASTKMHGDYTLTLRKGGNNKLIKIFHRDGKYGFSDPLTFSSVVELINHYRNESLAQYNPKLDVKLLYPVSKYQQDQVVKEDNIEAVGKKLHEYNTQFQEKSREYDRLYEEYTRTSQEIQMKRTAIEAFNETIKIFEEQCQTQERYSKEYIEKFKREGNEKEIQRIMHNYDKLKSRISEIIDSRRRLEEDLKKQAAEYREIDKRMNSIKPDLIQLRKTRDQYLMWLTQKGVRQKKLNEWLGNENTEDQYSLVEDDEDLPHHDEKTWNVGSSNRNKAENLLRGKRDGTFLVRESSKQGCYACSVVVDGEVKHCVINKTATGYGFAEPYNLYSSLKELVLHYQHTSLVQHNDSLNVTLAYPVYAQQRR

Row | SMILES | IC50 [1] [nM] | IC50 PI3Ka [2] [nM] | EC50 [3] [nM]
1 | CC(=O)NC1CCN(c2ncnc(C)c2C#Cc2ccc(N)nc2)CC1 [Example B-25] | 42 | 78 | 267
2 | Cc1ncnc(N2CCC3(CC2)OCCO3)c1C#Cc1ccc(N)nc1 [Example B-26] | 10 | 60 | 27
3 | Cc1ncnc(N2CCC(O)(c3ccccc3)CC2)c1C#Cc1ccc(N)nc1 [Example B-27] | 23 | 22 | 56
4 | Cc1ncnc(N2CCC(O)(Cc3ccccc3)CC2)c1C#Cc1ccc(N)nc1 [Example B-28] | 50 | 70 | 195
5 | CCc1ncnc(N2CCC(CCO)CC2)c1C#Cc1ccc(C)nc1 [Example B-29] | 67 | 88 | 234
6 | Cc1ncnc(N2CCC(CCO)CC2)c1C#Cc1ccc(N)nc1 [Example B-30] | 9 | 14 | 49
7 | CCc1ncnc(N2CCC(O)(C(F)(F)F)CC2)c1C#Cc1ccc(C)nc1 [Example B-31] | 37 | 172 | 80
8 | Cc1ncnc(N2CCC(O)(C(F)(F)F)CC2)c1C#Cc1ccc(N)nc1 [Example B-32] | 3 | 24 | 15
9 | CCc1ncnc(N2CCC(O)(CC)CC2)c1C#Cc1ccc(C)nc1 [Example B-33] | 51 | 102 | 152
10 | CCc1ncnc(N2CCC(O)(C(C)C)CC2)c1C#Cc1ccc(C)nc1 [Example B-35] | 23 | 172 | 168
11 | CCc1ncnc(N2CCC(OCCOC)CC2)c1C#Cc1ccc(N)nc1 [Example B-37] | 36 | 89 | 148
12 | COC1CCN(c2ncnc(C)c2C#Cc2ccc(N)nc2)CC1 [Example B-38] | 18 | 37 | 122
13 | CCc1ncnc(N2CCC(COC)CC2)c1C#Cc1ccc(N)nc1 [Example B-39] | 19 | 87 | 50
14 | CCc1ncnc(N2CCN(C(C)=O)CC2)c1C#Cc1ccc(N)nc1 [Example B-40] | 32 | 62 | 187
15 | CCc1ncnc(N2CCC(C(F)(F)F)CC2)c1C#Cc1ccc(N)nc1 [Example B-41] | 9 | 201 | 19
16 | CCc1ncnc(N2CCC(F)(F)CC2)c1C#Cc1ccc(N)nc1 [Example B-42] | 31 | 196 | 105
17 | CCc1ncnc(N2CCN(S(C)(=O)=O)CC2)c1C#Cc1ccc(N)nc1 [Example B-43] | 16 | 88 | 139
18 | CCc1ncnc(N2CCC(OC)CC2)c1C#Cc1ccc(N)nc1 [Example B-44] | 10 | 58 | 76
19 | CCc1ncnc(N2CCC(CO)CC2)c1C#Cc1ccc(N)nc1 [Example B-45] | 10 | 58 | 46
20 | CCc1ncnc(N2CCC(C)(O)CC2)c1C#Cc1ccc(N)nc1 [Example B-47] | 5 | 36 | 46
21 | CCc1ncnc(N2CCC(O)CC2)c1C#Cc1ccc(N)nc1 [Example B-48] | 14 | 99 | 141
22 | CCc1ncnc(N2CCCC(CO)C2)c1C#Cc1ccc(N)nc1 (stereo not drawn) [Example B-49] | 28 | 73 | 124
23 | CCc1ncnc(N2CCOC(C)(C)C2)c1C#Cc1ccc(N)nc1 [Example B-50] | 30 | 49 | 56
24 | CCc1ncnc(N2CCN(C3CC3)CC2)c1C#Cc1ccc(N)nc1 [Example B-51] | 43 | 86 | 129
